From patent US11124554B2, “Modified ligand-gated ion channels and methods of use” (Howard Hughes Medical Institute, priority 2016, dated 2021)
Like-named read-outs stand apart in the source and are kept apart here.

Assays:
α7^Q79S-5HT3 = biological target: T1, α7^Q79S-5HT3 (Homo sapiens, UniProt P36544, M226I/Q79S/T225I); experiment: Agonist potency (EC50), HEK cells expressing chimeric channel; assay type: cell-based, human α7 nAChR LBD, murine 5HT3 IPD; conditions: read-out: Mean EC50, α7^Q79S-5HT3
T1 construct: expressed in transfected cells; host or cells: HEK cells

α7^L131G-GlyR = biological target: T2, α7^L131G-GlyR (Homo sapiens, UniProt P36544, L131G); experiment: Agonist potency at chimeric channel (Table 9); assay type: cell-based
T2 construct: expressed in transfected cells

α7^W77F,G175K,Y210F-GlyR = biological target: T3, α7^W77F,G175K,Y210F-GlyR (Homo sapiens, UniProt P36544, G175K/W77F/Y210F); experiment: Agonist potency at chimeric channel; assay type: cell-based
T3 construct: expressed in transfected cells

α7^Q79G,Q139L,G175K-GlyR = biological target: T4, α7^Q79G,Q139L,G175K-GlyR (Homo sapiens, UniProt P36544, G175K/Q139L/Q79G); experiment: Agonist potency at chimeric channel; assay type: cell-based
T4 construct: expressed in transfected cells

α7-5HT3 = biological target: T5, α7-5HT3 (Homo sapiens, UniProt P36544, M226I/T225I); experiment: Agonist potency (EC50), HEK cells expressing chimeric channel; assay type: cell-based, human α7 nAChR LBD, murine 5HT3 IPD
T5 construct: expressed in transfected cells; host or cells: HEK cells

α7GlyR Q79G L131G = biological target: T6, α7GlyR Q79G L131G (Homo sapiens, UniProt P36544, L131G/Q79G); experiment: Agonist potency at chimeric channel (Table 9); assay type: cell-based
T6 construct: expressed in transfected cells

[1] = tested on: α7GlyR chimeric channels with G175K and A298G mutations; assay type: cell-based, human
α7^Y115F,G175K-GlyR = biological target: T7, α7^Y115F,G175K-GlyR (Homo sapiens, UniProt P36544, G175K/Y115F); experiment: Agonist potency at chimeric channel; assay type: cell-based
T7 construct: expressed in transfected cells

α7^Q79S-GlyR = biological target: T8, α7^Q79S-GlyR (Homo sapiens, UniProt P36544, Q79S); experiment: Agonist potency (EC50), HEK cells expressing chimeric channel; assay type: cell-based
T8 construct: expressed in transfected cells; host or cells: HEK cells

α7^L131V-GlyR = biological target: T9, α7^L131V-GlyR (Homo sapiens, UniProt P36544, L131V); experiment: Agonist potency at chimeric channel (Table 9); assay type: cell-based
T9 construct: expressed in transfected cells

α7^Q79G-GlyR = biological target: T10, α7^Q79G-GlyR (Homo sapiens, UniProt P36544, Q79G); experiment: Agonist potency (EC50), HEK cells expressing chimeric channel; assay type: cell-based
T10 construct: expressed in transfected cells; host or cells: HEK cells

α7^L131G,Q139L-GlyR = biological target: T11, α7^L131G,Q139L-GlyR (Homo sapiens, UniProt P36544, L131G/Q139L); experiment: Agonist potency at chimeric channel (Table 9); assay type: cell-based
T11 construct: expressed in transfected cells

α7^Q79G,G175K-GlyR = biological target: T12, α7^Q79G,G175K-GlyR (Homo sapiens, UniProt P36544, G175K/Q79G); experiment: Agonist potency at chimeric channel; assay type: cell-based
T12 construct: expressed in transfected cells

α7^L131A-GlyR = biological target: T13, α7^L131A-GlyR (Homo sapiens, UniProt P36544, L131A); experiment: Agonist potency at chimeric channel (Table 9); assay type: cell-based
T13 construct: expressed in transfected cells

α7^Q79G,Y115F,G175K-GlyR = biological target: T14, α7^Q79G,Y115F,G175K-GlyR (Homo sapiens, UniProt P36544, G175K/Q79G/Y115F); experiment: Agonist potency at chimeric channel; assay type: cell-based
T14 construct: expressed in transfected cells

α7^W77F,Q79G,G175K-GlyR = biological target: T15, α7^W77F,Q79G,G175K-GlyR (Homo sapiens, UniProt P36544, G175K/Q79G/W77F); experiment: Agonist potency at chimeric channel; assay type: cell-based
T15 construct: expressed in transfected cells

α7^Q79S,L131G-GlyR = biological target: T16, α7^Q79S,L131G-GlyR (Homo sapiens, UniProt P36544, L131G/Q79S); experiment: Agonist potency at chimeric channel (Table 9); assay type: cell-based
T16 construct: expressed in transfected cells

[2] = biological target: T17, α7GlyR Q79G Y115F G175K Y210F (Homo sapiens, UniProt P36544, G175K/Q79G/Y115F/Y210F); experiment: Agonist potency at chimeric channel; assay type: cell-based
T17 construct: expressed in transfected cells

α7^L131Q-GlyR = biological target: T18, α7^L131Q-GlyR (Homo sapiens, UniProt P36544, L131Q); experiment: Agonist potency at chimeric channel (Table 9); assay type: cell-based
T18 construct: expressed in transfected cells

[3] = biological target: T19, α7^L141F,Y115F,G175K-GlyR (Homo sapiens, UniProt P36544, G175K/L141F/Y115F); experiment: Agonist potency at chimeric channel; assay type: cell-based
T19 construct: expressed in transfected cells

α7^G175K-GlyR = biological target: T20, α7^G175K-GlyR (Homo sapiens, UniProt P36544, G175K); experiment: Agonist potency at chimeric channel; assay type: cell-based
T20 construct: expressed in transfected cells

[4] = biological target: T21, α7GlyR R27D E41R Q79G Y115F (Homo sapiens, UniProt P36544, E41R/Q79G/R27D/Y115F); experiment: Agonist potency at chimeric channel (Table 7); assay type: cell-based
T21 construct: expressed in transfected cells

α7GlyR L131G D219A = biological target: T22, α7GlyR L131G D219A (Homo sapiens, UniProt P36544, D219A/L131G); experiment: Agonist potency at chimeric channel (Table 9); assay type: cell-based
T22 construct: expressed in transfected cells

α7^L131G,Y217F-GlyR = biological target: T23, α7^L131G,Y217F-GlyR (Homo sapiens, UniProt P36544, L131G/Y217F); experiment: Agonist potency at chimeric channel (Table 9); assay type: cell-based
T23 construct: expressed in transfected cells

α7^L131M-GlyR = biological target: T24, α7^L131M-GlyR (Homo sapiens, UniProt P36544, L131M); experiment: Agonist potency at chimeric channel (Table 9); assay type: cell-based
T24 construct: expressed in transfected cells

α7^L131G-5HT3 HC = biological target: T25, α7^L131G-5HT3 HC (Homo sapiens, UniProt P36544, L131G, form not given); experiment: Agonist potency at chimeric channel (Table 9); assay type: cell-based; conditions: read-out: Agonist potency
T25 construct: rows headed: Agonist potency; other: α75HT3 L131G HC; α75HT3 L131G HC; fused on or other part: 5-HT3A receptor ion pore domain at the C-terminus

α7^G175K,Y210F-GlyR = biological target: T26, α7^G175K,Y210F-GlyR (Homo sapiens, UniProt P36544, G175K/Y210F); experiment: Agonist potency at chimeric channel; assay type: cell-based
T26 construct: expressed in transfected cells

α7^Q79A-5HT3 = biological target: T27, α7^Q79A-5HT3 (Homo sapiens, UniProt P36544, M226I/Q79A/T225I); experiment: Agonist potency (EC50), HEK cells expressing chimeric channel; assay type: cell-based, human α7 nAChR LBD, murine 5HT3 IPD; conditions: read-out: Mean EC50, α7^Q79A-5HT3
T27 construct: expressed in transfected cells; host or cells: HEK cells

[5] = read-out: Agonist potency; α7GlyR Q79G A298G G175K Y115F
[6] = read-out: Agonist potency; α7GlyR Q79G A298G P2161
[7] = read-out: Agonist potency; α7GlyR Q79G A298G Y115F K395 K396A
[8] = read-out: Agonist potency; α7GlyR Q79G G175K A298G
[9] = read-out: Agonist potency; α7GlyR Q79G W77F A298G

T12 sequence (P36544 with tags, fused parts or gaps Q79G/G175K): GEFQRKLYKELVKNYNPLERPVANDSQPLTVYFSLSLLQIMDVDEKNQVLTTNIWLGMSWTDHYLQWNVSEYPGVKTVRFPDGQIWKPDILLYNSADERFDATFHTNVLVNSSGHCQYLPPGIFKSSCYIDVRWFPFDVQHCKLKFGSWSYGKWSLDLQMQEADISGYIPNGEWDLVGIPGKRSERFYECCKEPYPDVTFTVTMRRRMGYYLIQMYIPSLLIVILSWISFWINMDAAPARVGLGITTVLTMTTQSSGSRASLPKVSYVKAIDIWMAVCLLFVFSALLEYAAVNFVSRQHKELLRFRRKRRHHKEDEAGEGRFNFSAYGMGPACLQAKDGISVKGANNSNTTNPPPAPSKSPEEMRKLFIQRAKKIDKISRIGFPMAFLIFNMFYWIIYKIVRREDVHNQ
T20 sequence (P36544 with tags, fused parts or gaps G175K): as the sequence (P36544 with tags, fused parts or gaps Q79G/G175K) above, with G57Q counted along it
T18 sequence (P36544 with tags, fused parts or gaps L131Q): as the sequence (P36544 with tags, fused parts or gaps Q79G/G175K) above, with G57Q, L109Q, K153G counted along it
T24 sequence (P36544 with tags, fused parts or gaps L131M): as the sequence (P36544 with tags, fused parts or gaps Q79G/G175K) above, with G57Q, L109M, K153G counted along it
T1 sequence (P36544 with tags, fused parts or gaps Q79S/T225I/M226I): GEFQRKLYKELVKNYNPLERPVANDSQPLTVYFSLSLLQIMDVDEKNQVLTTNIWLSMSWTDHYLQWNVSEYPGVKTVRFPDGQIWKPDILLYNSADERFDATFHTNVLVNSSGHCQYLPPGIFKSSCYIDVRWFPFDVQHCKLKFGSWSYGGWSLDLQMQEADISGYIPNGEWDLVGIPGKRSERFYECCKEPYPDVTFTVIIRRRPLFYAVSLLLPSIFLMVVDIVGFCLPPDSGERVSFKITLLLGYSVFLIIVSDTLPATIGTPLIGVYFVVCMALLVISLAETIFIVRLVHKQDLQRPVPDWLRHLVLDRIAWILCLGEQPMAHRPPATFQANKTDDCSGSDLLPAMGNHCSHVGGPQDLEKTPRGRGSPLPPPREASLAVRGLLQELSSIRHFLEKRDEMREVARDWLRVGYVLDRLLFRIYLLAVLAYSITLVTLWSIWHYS
T10 sequence (P36544 with tags, fused parts or gaps Q79G): as the sequence (P36544 with tags, fused parts or gaps Q79G/G175K) above, with K153G counted along it
T15 sequence (P36544 with tags, fused parts or gaps W77F/Q79G/G175K): as the sequence (P36544 with tags, fused parts or gaps Q79G/G175K) above, with W55F counted along it
T9 sequence (P36544 with tags, fused parts or gaps L131V): as the sequence (P36544 with tags, fused parts or gaps Q79G/G175K) above, with G57Q, L109V, K153G counted along it
T5 sequence (P36544 with tags, fused parts or gaps T225I/M226I): as the sequence (P36544 with tags, fused parts or gaps Q79S/T225I/M226I) above, with S57Q counted along it
T26 sequence (P36544 with tags, fused parts or gaps G175K/Y210F): as the sequence (P36544 with tags, fused parts or gaps Q79G/G175K) above, with G57Q, Y188F counted along it
T2 sequence (P36544 with tags, fused parts or gaps L131G): as the sequence (P36544 with tags, fused parts or gaps Q79G/G175K) above, with G57Q, L109G, K153G counted along it
T19 sequence (P36544 with tags, fused parts or gaps Y115F/L141F/G175K): as the sequence (P36544 with tags, fused parts or gaps Q79G/G175K) above, with G57Q, Y93F, L119F counted along it
T13 sequence (P36544 with tags, fused parts or gaps L131A): as the sequence (P36544 with tags, fused parts or gaps Q79G/G175K) above, with G57Q, L109A, K153G counted along it
T7 sequence (P36544 with tags, fused parts or gaps Y115F/G175K): as the sequence (P36544 with tags, fused parts or gaps Q79G/G175K) above, with G57Q, Y93F counted along it
T16 sequence (P36544 with tags, fused parts or gaps Q79S/L131G): as the sequence (P36544 with tags, fused parts or gaps Q79G/G175K) above, with G57S, L109G, K153G counted along it
T4 sequence (P36544 with tags, fused parts or gaps Q79G/Q139L/G175K): as the sequence (P36544 with tags, fused parts or gaps Q79G/G175K) above, with Q117L counted along it
T17 sequence (P36544 with tags, fused parts or gaps Q79G/Y115F/G175K/Y210F): as the sequence (P36544 with tags, fused parts or gaps Q79G/G175K) above, with Y93F, Y188F counted along it
T25 sequence (P36544 23-224 L131G limits assumed, form open): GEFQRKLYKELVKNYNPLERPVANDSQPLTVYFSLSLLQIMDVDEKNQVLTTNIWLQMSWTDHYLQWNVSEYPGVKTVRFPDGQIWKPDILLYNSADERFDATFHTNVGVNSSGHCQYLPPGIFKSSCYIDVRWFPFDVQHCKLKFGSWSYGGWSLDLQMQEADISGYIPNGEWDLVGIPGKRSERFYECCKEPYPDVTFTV
T21 sequence (P36544 with tags, fused parts or gaps R27D/E41R/Q79G/Y115F): as the sequence (P36544 with tags, fused parts or gaps Q79G/G175K) above, with R5D, E19R, Y93F, K153G counted along it
T3 sequence (P36544 with tags, fused parts or gaps W77F/G175K/Y210F): as the sequence (P36544 with tags, fused parts or gaps Q79G/G175K) above, with W55F, G57Q, Y188F counted along it
T11 sequence (P36544 with tags, fused parts or gaps L131G/Q139L): as the sequence (P36544 with tags, fused parts or gaps Q79G/G175K) above, with G57Q, L109G, Q117L, K153G counted along it
T27 sequence (P36544 with tags, fused parts or gaps Q79A/T225I/M226I): as the sequence (P36544 with tags, fused parts or gaps Q79S/T225I/M226I) above, with S57A counted along it
T23 sequence (P36544 with tags, fused parts or gaps L131G/Y217F): as the sequence (P36544 with tags, fused parts or gaps Q79G/G175K) above, with G57Q, L109G, K153G, Y195F counted along it
T22 sequence (P36544 with tags, fused parts or gaps L131G/D219A): as the sequence (P36544 with tags, fused parts or gaps Q79G/G175K) above, with G57Q, L109G, K153G, D197A counted along it
T8 sequence (P36544 with tags, fused parts or gaps Q79S): as the sequence (P36544 with tags, fused parts or gaps Q79G/G175K) above, with G57S, K153G counted along it
T14 sequence (P36544 with tags, fused parts or gaps Q79G/Y115F/G175K): as the sequence (P36544 with tags, fused parts or gaps Q79G/G175K) above, with Y93F counted along it
T6 sequence (P36544 with tags, fused parts or gaps Q79G/L131G): as the sequence (P36544 with tags, fused parts or gaps Q79G/G175K) above, with L109G, K153G counted along it

SMILES | EC50 (α7^L131G-GlyR) [nM] | EC50 (α7^W77F,G175K,Y210F-GlyR) [µM] | EC50 (α7^Q79G,Q139L,G175K-GlyR) [nM] | EC50 (α7^Y115F,G175K-GlyR) [nM] | EC50 (α7^Q79S-GlyR) [nM] | EC50 (α7^L131V-GlyR) [nM] | EC50 (α7^Q79G-GlyR) [nM] | EC50 (α7^L131G,Q139L-GlyR) [nM] | EC50 (α7^Q79G,G175K-GlyR) [nM] | EC50 (α7^L131A-GlyR) [nM] | EC50 (α7^Q79G,Y115F,G175K-GlyR) [nM] | EC50 (α7^W77F,Q79G,G175K-GlyR) [nM] | EC50 (α7^Q79S,L131G-GlyR) [nM] | EC50 [2] [µM] | EC50 (α7^L131Q-GlyR) [nM] | EC50 [3] [nM] | EC50 (α7^G175K-GlyR) [nM] | EC50 [4] [nM] | EC50 (α7GlyR L131G D219A) [nM] | EC50 (α7^L131G,Y217F-GlyR) [nM] | also measured
O=c1cccc2n1C[C@@H]1CNC[C@H]2C1 [Cytisine] | 13100 | 5.1 | 3240 | 7100 | 2500 | 4300 | 5600 | 12000 | 2500 | 20600 | > 10000 | 6900 | 8100 | > 30 | > 30000 | 4740 | 400 | > 30000 | > 30000 | 30000 | EC50 (α7^Q79S-5HT3): 4400 nM; EC50 (α7-5HT3; read-out: Mean EC50, α7-5HT3): 8200 nM; EC50 (α7GlyR Q79G L131G): > 30000 nM; EC50 [1, 5]: 4600 nM; EC50 [1, 6]: 5500 nM; EC50 [1, 7]: > 30000 nM; EC50 [1, 8]: 134 nM; EC50 [1, 9]: 14100 nM; EC50 (α7^L131M-GlyR): 7000 nM; EC50 (α7^L131G-5HT3 HC): 11000 nM; EC50 (α7^G175K,Y210F-GlyR): > 10000 nM; EC50 (α7^Q79A-5HT3): 4000 nM
Clc1ccc(C2CC3CCC2N3)cn1 (stereo not drawn) [Epibatidine] | 9 | 0.38 | 144 | 36 | 24 | 210 | 69 | 12 | 37 | 27 | 220 | 2600 | 7 | > 10 | 27 | 144 | 5 | 267 | 160 | 15 | EC50 (α7^Q79S-5HT3; HEK cells, Table 1): 44 nM; EC50 (α7-5HT3; read-out: Mean EC50, α7-5HT3, HEK cells, Table 1): 53 nM; EC50 ([1]; α7GlyR Q79G A298G G175K Y115F; read-out: Agonist potency): 11 nM; EC50 ([1]; α7GlyR Q79G A298G P2161; read-out: Agonist potency): 50 nM; EC50 ([1]; α7GlyR Q79G A298G Y115F K395 K396A; read-out: Agonist potency): 150 nM; EC50 ([1]; α7GlyR Q79G G175K A298G; read-out: Agonist potency): 2.3 nM; EC50 ([1]; α7GlyR Q79G W77F A298G; read-out: Agonist potency): 370 nM; EC50 (α7^L131M-GlyR): 42 nM; EC50 (α7^L131G-5HT3 HC; α75HT3 L131G HC): 9 nM; EC50 (α7^G175K,Y210F-GlyR): 650 nM; EC50 (α7^Q79A-5HT3; HEK cells, Table 1): 67 nM
O=C(NC1CN2CCC1CC2)c1ccc(Cl)cc1 (stereo not drawn) [PNU-282987] | 34 | > 40 | 50 | 100 | 14 | 64 | 26 | 63 | 60 | 55 | 80 | 500 | 6 | > 1 | 48 | 510 | 5 | 340 | 410 | 54 | EC50 (α7^Q79S-5HT3): 23 nM; EC50 (α7-5HT3; read-out: Mean EC50, α7-5HT3): 220 nM; EC50 (α7-5HT3; read-out: α7-5HT3 EC50): 220 nM; EC50 (α7GlyR Q79G L131G): 96 nM; EC50 [1, 5]: 9 nM; EC50 [1, 6]: 250 nM; EC50 [1, 7]: 110 nM; EC50 [1, 8]: 0.36 nM; EC50 [1, 9]: 1630 nM; EC50 (α7^L131M-GlyR): 21 nM; EC50 (α7^L131G-5HT3 HC): 33 nM; EC50 (α7^G175K,Y210F-GlyR): 700 nM; EC50 (α7^Q79A-5HT3): 37 nM
